Measurements reported in patent publication US20150344485A1, “BICYCLIC PYRIMIDONE COMPOUNDS AS INHIBITORS OF LP-PLA2” (GLAXOSMITHKLINE INTELLECTUAL PROPERTY DEVELOPMENT LIMITED, priority 2013, published 2015).
Read-outs that look alike come from different tables or passages of the source.

Legend:
[1] = molecular target: T1, recombinant human Lp-PLA2 (Homo sapiens, UniProt Q13093); assay: Recombinant human Lp-PLA2 assay (rhLp-PLA2, PED6 assay); format: biochemical
T1 sequence (Q13093 22-441): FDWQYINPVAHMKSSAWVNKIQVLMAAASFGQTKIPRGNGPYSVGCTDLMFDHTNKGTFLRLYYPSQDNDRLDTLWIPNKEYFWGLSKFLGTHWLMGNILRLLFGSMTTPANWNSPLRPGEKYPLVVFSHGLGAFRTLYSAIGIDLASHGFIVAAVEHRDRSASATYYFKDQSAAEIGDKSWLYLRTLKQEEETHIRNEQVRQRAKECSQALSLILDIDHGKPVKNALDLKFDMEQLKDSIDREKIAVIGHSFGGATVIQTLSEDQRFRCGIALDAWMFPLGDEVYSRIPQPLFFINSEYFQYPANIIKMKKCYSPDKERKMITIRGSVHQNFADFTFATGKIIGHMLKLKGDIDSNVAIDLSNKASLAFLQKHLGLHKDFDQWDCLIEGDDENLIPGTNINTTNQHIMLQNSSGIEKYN
Text: (1) Recombinant Human Lp-PLA2 Assay (rhLp-PLA2) (Also Referred to as “PED6” Assay)
N-((6-(2,4-dinitrophenyl)amino)-hexanoyl)-2-(4,4-difluoro-5,7-dimethyl-4-bora-3a,4a-diaza-s-indacene-3-pentanoyl)-1-hexadecanoyl-sn-glycero-3-phosphoethanolamine, triethylammonium salt (PED6) is a commercially available fluorescently-labeled phospholipid, which is commercially available from Invitrogene and Molecular Probes. There is a quenching para-nitro phenyl (PNP) group in the sn3 position and a Bodipy fluorescein (FL) group in the sn2 position. Upon cleavage with Lp-PLA2, the Bodipy FL group is liberated and then may result in an increase in fluorescence. Inhibitors of Lp-PLA2 therefore prevent this cleavage and no fluorescent increase is observed.
The PED6 assay was run as an unquenched 10 μL assay. The source plate containing the compounds to be tested was prepared by making 1:3 (by volume) serial dilution of the compounds within DMSO on 384-well microplate. Then, 0.01 μL of the compounds on compound source plate were transferred into 384 well Greiner 784076 (black) plates using ECHO liquid dispenser. 5 μL of recombinant human Lp-PLA2 enzyme (4 nM (or 110 pM) rhLp-PLA2 in assay buffer of 50 mM HEPES, pH 7.4, 150 mM NaCl, 1 mM CHAPS) was added to each well of the plate. Plates were centrifuged for 10 sec at 500 rpm. After 30 minutes preincubation, 5 μL of substrate (4 μM (or 5 μM) PED6 [from 5 mM DMSO stock] in assay buffer of 50 mM HEPES, pH 7.4, 150 mM NaCl, 1 mM CHAPS) was added to 384 well Greiner 784076 (black) plates. Plates were centrifuged for 10 sec at 500 rpm. The plate was covered to protect it from light and incubated for 20 min at room temperature. The plates were read for fluorescence intensity at ex: 480/em: 540 using ViewLux microplate imager for Envision spectrofluroimeters. pIC50 data, curve and QC analysis was conducted by using XL fit module in Excel.

[2] = molecular target: T2, Lp-PLA2 in human plasma (Homo sapiens, UniProt Q13093); assay: Lp-PLA2 human plasma assay (Thio-PAF assay); format: biochemical; conditions: pooled human plasma; read-out: pIC50 values in the thio-PAF assay (converted)
T2 construct: from tissue; host or cells: pooled human plasma
T2 sequence (Q13093 22-441): T1 sequence (Q13093 22-441)
Text: The human plasma assay utilizes a thioester analog of PAF (phosphatidylcholine), where hydrolysis yields to the formation of a phospholipid containing a free thiol group. The amount of thiol is quantitated continuously by reacting with CPM (7-diethylamino-3-(4′-maleimidylphenyl)-4-methylcoumarin), a maleimide which increases in fluoresence after Michael addition of thiols. This assay may detect the activity of Lp-PLA2 in human plasma, as determined by specific inhibition by Lp-PLA2 inhibitors.
The thio-PAF assay was run as a quenched 15 μL assay. Compounds source plate was prepared by making 1:3 (by volume) serial dilution of the compounds into pure DMSO on 384-well microplate. 0.01 μL of compounds on compound source plate were transferred to 384 well Greiner 784076 (black) low-volume plates by ECHO liquid dispenser. 8 μL pooled human plasma, which was previously aliquoted and frozen, was added. Plates were centrifuged for 10 sec at 500 rpm. After 30 minutes preincubation, 2 μL of substrate solution comprising 2.5 mM 2-thio-PAF [from ethanol stock], 32 μM CPM [from a DMSO stock] and 3.2 mM NEM (N-ethylmaleimide) [made fresh daily in DMSO] in assay buffer of 50 mM HEPES, pH 7.4, 150 mM NaCl, 1 mM CHAPS was added to 384 well Greiner 784076 (black) low-volume plates by BRAVO liquid handling station. After 2 mins, reaction was quenched with 5 μL of 5% aqueous trifluoroacetic acid (TFA). Plates were covered to protect from light and incubated for 40 min at room temperature. Plates were read at ex: 380/em: 485 using-Envision microplate reader. pIC50 data, curve and QC analysis was conducted by using XLFit module in Excel.

[3] = read-out: pIC50 values in the recombinant human Lp-PLA2 assay (converted)
[4] = read-out: rhLp-PLA2 (PED6 assay) (pIC50) (converted)

Compound	IC50 [1, 3] [nM]	IC50 [2] [nM]	IC50 [1, 4] [nM]
CC1CCn2c(cc(OCc3ccc(Oc4ccc(C(F)(F)F)nc4)c(F)c3)nc2=O)N1 (stereo not shown) [E1, 8-((3-fluoro-4-((6-(trifluoromethyl)pyridin-3-yl)oxy)benzyl)oxy)-2-methyl-3,4-dihydro-1H-pyrimido[1,6-a]pyrimidin-6(2H)-one]	≤ 1	≤ 100	
CC1CCn2c(cc(OCc3ccc(Oc4ccc(C(F)(F)F)cc4)c(C#N)c3)nc2=O)N1 (stereo not shown) [E2, 5-(((2-methyl-6-oxo-2,3,4,6-tetrahydro-1H-pyrimido[1,6-a]pyrimidin-8-yl)oxy)methyl)-2-(4-(trifluoromethyl)phenoxy)benzonitrile]	≤ 1	≤ 100	0.126
CC1CCn2c(cc(OCc3ccc(Oc4ccc(F)c(F)c4)c(F)c3)nc2=O)N1 (stereo not shown) [E3, 8-((4-(3,4-difluorophenoxy)-3-fluorobenzyl)oxy)-2-methyl-3,4-dihydro-1H-pyrimido[1,6-a]pyrimidin-6(2H)-one]	≤ 1	≤ 100	
CC1CCn2c(cc(OCc3ccc(F)c(F)c3)nc2=O)N1 (stereo not shown) [E4, 8-((3,4-difluorobenzyl)oxy)-2-methyl-3,4-dihydro-1H-pyrimido[1,6-a]pyrimidin-6(2H)-one]		≤ 100	3.16
CC1CCn2c(cc(OCc3cc(F)c(Oc4cccc(F)c4)c(F)c3)nc2=O)N1 (stereo not shown) [E5, 8-((3,5-difluoro-4-(3-fluorophenoxy)benzyl)oxy)-2-methyl-3,4-dihydro-1H-pyrimido[1,6-a]pyrimidin-6(2H)-one]	≤ 1		0.398
CC1CCn2c(cc(OCc3ccc(Oc4ccc(Cl)c(F)c4)c(C#N)c3)nc2=O)N1 (stereo not shown) [E6, 2-(4-chloro-3-fluorophenoxy)-5-(((2-methyl-6-oxo-2,3,4,6-tetrahydro-1H-pyrimido[1,6-a]pyrimidin-8-yl)oxy)methyl)benzonitrile]	≤ 1	≤ 100	
CC1CCn2c(cc(OCc3ccc(F)c(F)c3)nc2=O)N1C (stereo not shown) [E7, 8-((3,4-difluorobenzyl)oxy)-1,2-dimethyl-3,4-dihydro-1H-pyrimido[1,6-a]pyrimidin-6(2H)-one]	≤ 1	≤ 100	
CC1CCn2c(cc(OCc3cc(F)c(F)c(F)c3)nc2=O)N1C (stereo not shown) [E8, 1,2-dimethyl-8-((3,4,5-trifluorobenzyl)oxy)-3,4-dihydro-1H-pyrimido[1,6-a]pyrimidin-6(2H)-one]	≤ 1	≤ 100	0.398
[2H]C([2H])(Oc1cc2n(c(=O)n1)CC[C@@H](C)N2C)c1cc(F)c(F)cc1F [E23, (R)-8-(dideutero(2,4,5-trifluorophenyl)methoxy)-1,2-dimethyl-3,4-dihydro-1H-pyrimido[1,6-a]pyrimidin-6(2H)-one]			12.6
C[C@@H]1CCn2c(cc(OCc3ccc(F)c(F)c3)nc2=O)N1 [E28, (R)-8-((3,4-difluorobenzyl)oxy)-2-methyl-3,4-dihydro-1H-pyrimido[1,6-a]pyrimidin-6(2H)-one]	≤ 1	≤ 100	
C[C@@H]1CCn2c(cc(OCc3cc(F)c(F)c(F)c3)nc2=O)N1 [E29, (R)-2-methyl-8-((3,4,5-trifluorobenzyl)oxy)-3,4-dihydro-1H-pyrimido[1,6-a]pyrimidin-6(2H)-one]		≤ 100	1.26
C[C@H]1CCn2c(cc(OCc3cc(F)c(F)c(F)c3)nc2=O)N1C [E35, (S)-1,2-dimethyl-8-((3,4,5-trifluorobenzyl)oxy)-3,4-dihydro-1H-pyrimido[1,6-a]pyrimidin-6(2H)-one]	≤ 1	≤ 100	
C[C@H]1CCn2c(cc(OCc3ccc(F)c(F)c3)nc2=O)N1C [E37, (S)-8-((3,4-difluorobenzyl)oxy)-1,2-dimethyl-3,4-dihydro-1H-pyrimido[1,6-a]pyrimidin-6(2H)-one]	≤ 1	≤ 100	
C[C@H]1CCn2c(cc(OCc3cc(F)c(Oc4ccc(C(F)(F)F)nc4)c(F)c3)nc2=O)N1C [E46, (S)-8-((3,5-difluoro-4-((6-(trifluoromethyl)pyridin-3-yl)oxy)benzyl)oxy)-1,2-dimethyl-3,4-dihydro-1H-pyrimido[1,6-a]pyrimidin-6(2H)-one]	≤ 1	≤ 10	0.126
C[C@@H]1CCn2c(cc(OCc3ccc(OC4CCCC4)c(F)c3)nc2=O)N1C [E48, (R)-8-((4-(cyclopentyloxy)-3-fluorobenzyl)oxy)-1,2-dimethyl-3,4-dihydro-1H-pyrimido[1,6-a]pyrimidin-6(2H)-one]			7.94
CC(C)Oc1ccc(COc2cc3n(c(=O)n2)CC[C@@H](C)N3C)cc1F [E51, (R)-8-((3-fluoro-4-isopropoxybenzyl)oxy)-1,2-dimethyl-3,4-dihydro-1H-pyrimido[1,6-a]pyrimidin-6(2H)-one]			50.1
C[C@@H]1CCn2c(cc(OCc3ccc(OC4CCCCC4)c(F)c3)nc2=O)N1C [E67, (R)-8-((4-(cyclohexyloxy)-3-fluorobenzyl)oxy)-1,2-dimethyl-3,4-dihydro-1H-pyrimido[1,6-a]pyrimidin-6(2H)-one]			5.01
CC(C)N1c2cc(OCc3ccc(F)c(F)c3)nc(=O)n2CC[C@H]1C [E69, (R)-8-((3,4-difluorobenzyl)oxy)-1-isopropyl-2-methyl-3,4-dihydro-1H-pyrimido[1,6-a]pyrimidin-6(2H)-one]	≤ 1		
C[C@H]1CCn2c(cc(OCc3cc(F)c(OC4CCCCC4)c(F)c3)nc2=O)N1C [E81, (S)-8-((4-(cyclohexyloxy)-3,5-difluorobenzyl)oxy)-1,2-dimethyl-3,4-dihydro-1H-pyrimido[1,6-a]pyrimidin-6(2H)-one]	≤ 1		
CC(C)Oc1c(F)cc(COc2cc3n(c(=O)n2)CC[C@@H](C)N3C)cc1F [E82, (R)-8-((3,5-difluoro-4-isopropoxybenzyl)oxy)-1,2-dimethyl-3,4-dihydro-1H-pyrimido[1,6-a]pyrimidin-6(2H)-one]	≤ 1		0.126
C[C@@H]1CCn2c(cc(OCc3cc(F)c(OC4CCCCC4)c(F)c3)nc2=O)N1C [E83, (R)-8-((4-(cyclohexyloxy)-3,5-difluorobenzyl)oxy)-1,2-dimethyl-3,4-dihydro-1H-pyrimido[1,6-a]pyrimidin-6(2H)-one]	≤ 1		
CC(C)Oc1c(F)cc(COc2cc3n(c(=O)n2)CC[C@H](C)N3C)cc1F [E100, (S)-8-((3,5-difluoro-4-isopropoxybenzyl)oxy)-1,2-dimethyl-3,4-dihydro-1H-pyrimido[1,6-a]pyrimidin-6(2H)-one]	≤ 1		
C[C@H]1CCn2c(cc(OCc3ccc(Oc4cc(F)cc(F)c4)cc3)nc2=O)N1C [E141, (S)-8-((4-(3,5-difluorophenoxy)benzyl)oxy)-1,2-dimethyl-3,4-dihydro-1H-pyrimido[1,6-a]pyrimidin-6(2H)-one]	≤ 1		
